“Also recorded” adds a separate entry of the source.
Key:
[1] = test system: wild-type (WT) unedited human iPSC-microglia; experiment: Cell death assay (fluorogenic caspase 3/7, IncuCyte time-lapse imaging), WT microglia; type: cell-based; conditions: 250 nM, 500 nM, 1 μm, 24 hours, compared to DMSO control
Source text: (§1) FIGS. 4A, 4B, 4C, 4D, and 4E show human stem cell-derived microglia are also susceptible to and killed by CSF1R inhibition in vitro. […] Images captured on Incucyte S3 live-cell imager. […] Images captured on Incucyte S3 live-cell imager. […] Images captured on Incucyte S3 live-cell imager. […] Images captured on Incucyte S3 live-cell imager. […] For all panels, n=4 images in six independent wells were quantified. Data represented as mean values±SEM.
(§2) Strategy 1: A crystal structure of the CSF1R receptor bound to an antagonist (PMID: 31434879) to predict amino acid substitutions that may sterically hinder the binding of CSF1R antagonists while not impairing the normal binding of ATP into the same binding pocket. The crystal structure of PLX5622 bound to human CSF1R was obtained and the ATP binding pocket was examined (FIG. 7A). Through molecular modeling single amino acid changes were predicted that would likely impair the binding of PLX5622 or PLX3397 or other CSF1R antagonists while not disrupting normal ATP binding to CSF1R. […] Other mutations could also be explored to prevent binding (FIG. 7D). […] The resulting iPSCs were then differentiated into microglia and exposed to varying concentrations of either PLX3397 or PLX5622. To detect microglial cell death (apoptosis) a caspase-3/7 fluorogenic reporter was used. […] FIG. 4F provided representative images of cell density (phase-contrast microscopy, 1st column) and fluorescent Caspase-3/7 activity (2nd column) across each dose of PLX3397 and PLX5622.
(§3) Resistance to each of the CSF1R inhibitors tested was quantified using a fluorogenic caspase 3/7 detector (Essen BioScience) and time-lapse imaging over 24 hours.
(§4) Cell death assay: iPS-microglia were plated at 70K cells per 96-well plate (6 wells per line per condition). At time 0, all microglia were treated with IncuCyte Caspase-3/7 Green Apoptosis Assay Reagent 1:1000. Cells were maintained in the described medium: fresh complete medium+0.1% DMSO, complete media+250 nM PLX3397, complete medium+500 nM PLX3397, complete medium+[…] PLX3397, complete medium+250 nM PLX5622, complete medium+500 nM PLX5622, complete medium +[…] PLX5622, complete medium+250 nM Edicotinib, complete medium+500 nM Edicotinib, complete medium +1 μm Edicotinib, complete medium+250 nM BLZ945, complete medium+500 nM BLZ945, complete medium +1 μm BLZ945. Four 20× images per well were collected every hour for 24 hours. Using IncuCyte 2020B software, image masks for phase confluence (visually gated out apoptotic cells) as well as caspase 3/7 signal (green) were generated. Graphs display caspase normalized to phase confluence, completed with 3 lines: WT, G795A, G795C (see FIGS. 4A, 4B, 4C, 4D, and 4E).

G795A iPSC-microglia [2] = experiment: Cell death assay (fluorogenic caspase 3/7, IncuCyte time-lapse imaging), G795A microglia; type: cell-based, human; conditions: 250 nM, 500 nM, 1 μm, 24 hours, compared to DMSO control
Source text: as §1, §2, §3, §4

G795C iPSC-microglia = experiment: Cell death assay (fluorogenic caspase 3/7, IncuCyte time-lapse imaging), G795C microglia; type: cell-based, human; conditions: 250 nM, 500 nM, 1 μm, 24 hours, compared to DMSO control
Source text: as §1, §2, §3, §4

[3] = test system: wild-type (WT) iPSC-microglia; experiment: LIVE/DEAD two-color viability/cytotoxicity, WT microglia; type: cell-based, human; conditions: 500 nM or 1 uM, 24 hours
Method: (§5) FIGS. 5A and 5B show G795A iPSC-derived microglia are resistant to CSF1R antagonist-induced cell death. As cells can die from processes other than caspase-mediated apoptosis, it is important to determine whether the G795A mutation provides a more broad-based resistance to any form of cell death induced by CSF1R antagonists, Therefore, G795A and wild-type (WT) iPSC-microglia were treated for 24 hours with either 500 nM (FIG, 5A) or 1 uM (FIG. 5B) of DMSO vehicle control or one of four CSF1R antagonists; PLX3397, PLX5622, Edicotinib, and BLZ945. The percent of live versus dead cells was then quantified using a two-color viability/cytotoxicity approach (Thermo L3224; LIVE/DEAD™ Viability/Cytotoxicity Kit). Very few dead microglia are observed 24 hours after treatment with DMSO. […] Live cells are denoted with a circle, […]

G795A iPSC-microglia [4] = experiment: LIVE/DEAD two-color viability/cytotoxicity, G795A microglia; type: cell-based, human; conditions: 500 nM or 1 uM, 24 hours
Method: as §5

wild-type human xMGs = experiment: PLX3397 chow treatment of xenotransplanted mice, wild-type xMGs (IBA-1/Ku80/Ki67 immunohistochemistry); type: in vivo, mouse; conditions: 600 mg/kg of PLX3397 in rodent chow ad libitum, 4 weeks
Source text: (§6) FIGS. 11A, 11B, 11C, 11D, 11E, 11F, 11G, 11H, 11I, and 11J show G795A iPSC-derived microglia are resistant to CSF1R […] treatment and enable robust engraftment of human microglia within the adult mammalian brain. Xenotransplantation-compatible mice received bilateral stereotactic intrahippocampal injections of 500,000 iPSC-derived human microglia (xMGs) at 2-months of age. Mice received xMGs differentiated from either a homozygous CSF1R-resistant G795A human iPSC line or an isogenic unmodified Wild-Type human i PSC. At fours of age, mice were treated with 600 mg/kg of PLX3397 in rodent chow ad libitum for 4 weeks duration. Mice were then sacrificed, and half-brains were examined by fluorescent immunohistochemistry and confocal microscopy.

G795A xMGs = experiment: PLX3397 chow treatment of xenotransplanted mice, G795A xMGs (IBA-1/Ku80/Ki67 immunohistochemistry); type: in vivo, human; conditions: 600 mg/kg of PLX3397 in rodent chow ad libitum, 4 weeks
Source text: as §6

WT microglia = experiment: RNA-seq transcriptomic response to PLX5622, WT microglia; type: cell-based, human; conditions: 24-hour treatment, compared to DMSO-treated cells
Source text: (§7) FIGS. 2A, 2B, 2C, 2D, 2E, and 2F show selected CSF1R mutations have little effect on transcriptomic signature while simultaneously imparting resistance to PLX5622.

[5] = test system: MUT1 (i.e., G795A) microglia; experiment: RNA-seq transcriptomic response to PLX5622, MUT1 (G795A) microglia; type: cell-based, human; conditions: 24-hour treatment, compared to DMSO-treated cells
Source text: as §7

[6] = test system: MUT2 (i.e., G795C) microglia; experiment: RNA-seq transcriptomic response to PLX5622, MUT2 (G795C) microglia; type: cell-based, human; conditions: 24-hour treatment, compared to DMSO-treated cells
Source text: as §7

CNC(=O)c1cc(Oc2ccc3nc(N[C@@H]4CCCC[C@H]4O)sc3c2)ccn1 [BLZ945]
caspase 3/7 levels (cell death / apoptosis) [1]: significant levels of increased caspase | caspase 3/7 levels (cell death / apoptosis) (G795A iPSC-microglia [2]): no significant increase in caspase levels | caspase 3/7 levels (cell death / apoptosis) (G795C iPSC-microglia): no significant increase in caspase levels | cell death (percent of live versus dead cells) [3]: substantial cell death | cell death (percent of live versus dead cells) (G795A iPSC-microglia [4]): little-to-no cell death

CC1(C)CC=C(c2nc(C3CC(C)(C)OC(C)(C)C3)ccc2NC(=O)c2nc(C#N)c[nH]2)CC1 [Edicotinib]
caspase 3/7 levels (cell death / apoptosis) [1]: significant levels of increased caspase | caspase 3/7 levels (cell death / apoptosis) (G795A iPSC-microglia [2]): no significant increase in caspase levels | caspase 3/7 levels (cell death / apoptosis) (G795C iPSC-microglia): no significant increase in caspase levels | cell death (percent of live versus dead cells) [3]: substantial cell death | cell death (percent of live versus dead cells) (G795A iPSC-microglia [4]): little-to-no cell death

FC(F)(F)c1ccc(CNc2ccc(Cc3c[nH]c4ncc(Cl)cc34)cn2)cn1 [PLX3397]
caspase 3/7 levels (cell death / apoptosis) [1]: robust dose-dependent induction of apoptosis; also recorded: significant levels of increased caspase | caspase 3/7 levels (cell death / apoptosis) (G795A iPSC-microglia [2]): complete resistance to cell death; also recorded: no significant increase in caspase levels | caspase 3/7 levels (cell death / apoptosis) (G795C iPSC-microglia): complete resistance to cell death; also recorded: no significant increase in caspase levels | cell death (percent of live versus dead cells) [3]: substantial cell death | cell death (percent of live versus dead cells) (G795A iPSC-microglia [4]): little-to-no cell death | survival of transplanted human xMGs in mouse brain (wild-type human xMGs): only a handful of wild-type human xMGs survive | survival / expansion of transplanted human xMGs in mouse brain (G795A xMGs): proliferate and expand from the initial injection sites

COc1ncc(F)cc1CNc1ccc(Cc2c[nH]c3ncc(C)cc23)c(F)n1 [PLX5622]
caspase 3/7 levels (cell death / apoptosis) [1]: robust dose-dependent induction of apoptosis; also recorded: significant levels of increased caspase | caspase 3/7 levels (cell death / apoptosis) (G795A iPSC-microglia [2]): complete resistance to cell death; also recorded: no significant increase in caspase levels | caspase 3/7 levels (cell death / apoptosis) (G795C iPSC-microglia): complete resistance to cell death; also recorded: no significant increase in caspase levels | cell death (percent of live versus dead cells) [3]: substantial cell death | cell death (percent of live versus dead cells) (G795A iPSC-microglia [4]): little-to-no cell death | transcriptomic alterations (FDR≤0.05; log2(FC)≥±1) (WT microglia): induced significant transcriptomic alterations | transcriptomic alterations (FDR≤0.05; log2(FC)≥±1) [5]: failed to significantly alter gene expression | transcriptomic alterations (FDR≤0.05; log2(FC)≥±1) [6]: failed to significantly alter gene expression

Reference: patent publication US20230248775A1, “GENETIC MODIFICATION OF MAMMALIAN CELLS TO CONFER RESISTANCE TO CSF1R ANTAGONISTS” (THE REGENTS OF THE UNIVERSITY OF CALIFORNIA, priority 2021, published 2023)
